The text below walks through data of ChEMBL document CHEMBL3045832, “3-Aryl-2-{4-[4-(2,4-dioxothiazolidin-5-ylmethyl)phenoxy]-phenyl}-acrylic acid alkyl ester: synthesis and antihyperglycemic evaluation” (2011).

Holding throughout (assay type): functional
Holding throughout (design): scale not given: the % may be the effect or the level left

Experiment [1] concerns Rattus norvegicus. The experiment can be described thus: Antihyperglycemic activity in streptozotocin-induced Rattus norvegicus Wistar (rat) diabetic model assessed as reduction in plasma glucose level at 25 umol/kg, po for 15 measured after treatment.
Experiment [2] has as its system Rattus norvegicus. The experiment can be described thus: Antihyperglycemic activity in streptozotocin-induced Rattus norvegicus Wistar (rat) diabetic model assessed as reduction in plasma glucose level at 20 umol/kg, po for 9 weeks measured on day 7.
Experiment [3] concerns Rattus norvegicus. The experiment can be described thus: Antihyperglycemic activity in streptozotocin-induced Rattus norvegicus Wistar (rat) diabetic model assessed as reduction in plasma glucose level at 30 umol/kg, po for 9 weeks measured at 3 day.
Experiment [4] concerns Rattus norvegicus. Nature of the experiment: Antihyperglycemic activity in streptozotocin-induced Rattus norvegicus Wistar (rat) diabetic model assessed as reduction in plasma glucose level at 15 umol/kg, po for 9 weeks measured on day 7.
The subject of experiment [5] is Rattus norvegicus. Nature of the experiment: Antihyperglycemic activity in streptozotocin-induced Rattus norvegicus Wistar (rat) diabetic model assessed as reduction in plasma glucose level at 20 umol/kg, po for 9 weeks measured at 3 day.
In experiment [6] the test system is Rattus norvegicus. The experiment can be described thus: Antihyperglycemic activity in streptozotocin-induced Rattus norvegicus Wistar (rat) diabetic model assessed as reduction in plasma glucose level at 30 umol/kg, po for 9 weeks measured on day 7.
In experiment [7] the test system is Rattus norvegicus. Nature of the experiment: Antihyperglycemic activity in streptozotocin-induced Rattus norvegicus Wistar (rat) diabetic model assessed as reduction in plasma glucose level at 25 umol/kg, po for 9 weeks measured at 10 day.
The test system of experiment [8] is Rattus norvegicus. The experiment can be described thus: Antihyperglycemic activity in streptozotocin-induced Rattus norvegicus Wistar (rat) diabetic model assessed as reduction in plasma glucose level at 20 umol/kg, po for 9 weeks measured at 15 day.
Experiment [9] has as its system Rattus norvegicus. Nature of the experiment: Antihyperglycemic activity in streptozotocin-induced Rattus norvegicus Wistar (rat) diabetic model assessed as reduction in plasma glucose level at 25 umol/kg, po for 9 weeks measured on day 7.
The subject of experiment [10] is Rattus norvegicus. Nature of the experiment: Antihyperglycemic activity in streptozotocin-induced Rattus norvegicus Wistar (rat) diabetic model assessed as reduction in plasma glucose level at 20 umol/kg, po for 9 weeks measured at 10 day.
The subject of experiment [11] is Rattus norvegicus. The experiment can be described thus: Antihyperglycemic activity in streptozotocin-induced Rattus norvegicus Wistar (rat) diabetic model assessed as reduction in plasma glucose level at 30 umol/kg, po for 9 weeks measured at 10 day.
In experiment [12] the test system is Rattus norvegicus. Nature of the experiment: Antihyperglycemic activity in streptozotocin-induced Rattus norvegicus Wistar (rat) diabetic model assessed as reduction in plasma glucose level at 15 umol/kg, po for 9 weeks measured at 15 day.
The subject of experiment [13] is Rattus norvegicus. Nature of the experiment: Antihyperglycemic activity in streptozotocin-induced Rattus norvegicus Wistar (rat) diabetic model assessed as reduction in plasma glucose level at 25 umol/kg, po for 9 weeks measured at 3 day.
Experiment [14] deals with Rattus norvegicus. Nature of the experiment: Antihyperglycemic activity in streptozotocin-induced Rattus norvegicus Wistar (rat) diabetic model assessed as reduction in plasma glucose level at 25 umol/kg, po for 9 weeks measured at 15 day.
Experiment [15] concerns Rattus norvegicus. Nature of the experiment: Antihyperglycemic activity in streptozotocin-induced Rattus norvegicus Wistar (rat) diabetic model assessed as reduction in plasma glucose level at 15 umol/kg, po for 9 weeks measured at 10 day.
For experiment [16], the system named is Rattus norvegicus. Nature of the experiment: Antihyperglycemic activity in streptozotocin-induced Rattus norvegicus Wistar (rat) diabetic model assessed as reduction in plasma glucose level at 30 umol/kg, po for 9 weeks measured at 15 day.
Experiment [17] concerns Rattus norvegicus. The experiment can be described thus: Antihyperglycemic activity in streptozotocin-induced Rattus norvegicus Wistar (rat) diabetic model assessed as reduction in plasma glucose level at 15 umol/kg, po for 9 weeks measured at 3 day.

The structures appear in SMILES notation.

For `CCOC(=O)/C(=C/c1ccc(OC)c(OC)c1)c1ccc(Oc2ccc(CC3SC(=O)NC3=O)cc2)cc1` (stereo not given), in the experiment with Rattus norvegicus [1], the Activity is 37.15%. Consider `CCOC(=O)/C(=C/c1ccc(Br)cc1)c1ccc(Oc2ccc(CC3SC(=O)NC3=O)cc2)cc1` (stereo not given), for which the Activity in the experiment on Rattus norvegicus [1] was 13.63%. As to `CCCOC(=O)/C(=C/c1ccc(Br)cc1)c1ccc(Oc2ccc(CC3SC(=O)NC3=O)cc2)cc1` (stereo not given), the Activity in the experiment on Rattus norvegicus [1] is on record as 13.42%. As to `COC(=O)/C(=C/c1ccccc1)c1ccc(Oc2ccc(CC3SC(=O)NC3=O)cc2)cc1` (stereo not given), the Activity with Rattus norvegicus [1] was determined as 10.74%.

On to `CCOC(=O)/C(=C/c1ccccc1)c1ccc(Oc2ccc(CC3SC(=O)NC3=O)cc2)cc1` (stereo not given), for which, in the experiment on Rattus norvegicus [1], the Activity is 9.8%. Still for that read-out and setting: the same measure for `CCCOC(=O)/C(=C/c1ccccc1)c1ccc(Oc2ccc(CC3SC(=O)NC3=O)cc2)cc1` (stereo not given): 8.6%; for `COC(=O)/C(=C/c1ccc(OC)cc1)c1ccc(Oc2ccc(CC3SC(=O)NC3=O)cc2)cc1` (stereo not given): 16.3%. On the same count and under the same terms, to `CCOC(=O)/C(=C/c1ccc(OC)cc1)c1ccc(Oc2ccc(CC3SC(=O)NC3=O)cc2)cc1` (stereo not given) belongs 14.61%; to `CCCOC(=O)/C(=C/c1ccc(OC)cc1)c1ccc(Oc2ccc(CC3SC(=O)NC3=O)cc2)cc1` (stereo not given), 13%; to `COC(=O)/C(=C/c1ccc(OC)cc1OC)c1ccc(Oc2ccc(CC3SC(=O)NC3=O)cc2)cc1` (stereo not given), 46.13%.

On to `CCOC(=O)/C(=C/c1ccc(OC)cc1OC)c1ccc(Oc2ccc(CC3SC(=O)NC3=O)cc2)cc1` (stereo not given), for which the Activity with Rattus norvegicus [1] turned out to be 46.03%. Regarding `CCCOC(=O)/C(=C/c1ccc(OC)cc1OC)c1ccc(Oc2ccc(CC3SC(=O)NC3=O)cc2)cc1` (stereo not given), the Activity with Rattus norvegicus [1] is given as 45.91%. On to `COC(=O)/C(=C/c1ccc(OC)c(OC)c1)c1ccc(Oc2ccc(CC3SC(=O)NC3=O)cc2)cc1` (stereo not given), for which, in the experiment on Rattus norvegicus [1], the Activity is on record as 38.11%. With `CCCOC(=O)/C(=C/c1ccc(OC)c(OC)c1)c1ccc(Oc2ccc(CC3SC(=O)NC3=O)cc2)cc1` (stereo not given), in the experiment with Rattus norvegicus [1], the Activity is given as 35.85%.

For the compound `COC(=O)/C(=C/c1cccc(OC)c1OC)c1ccc(Oc2ccc(CC3SC(=O)NC3=O)cc2)cc1` (stereo not given), the Activity with Rattus norvegicus [1] worked out at 37.05%. With `CCCOC(=O)/C(=C/c1cccc(OC)c1OC)c1ccc(Oc2ccc(CC3SC(=O)NC3=O)cc2)cc1` (stereo not given), the Activity came out at 37.24% in the experiment with Rattus norvegicus [1]; 14.56% in the experiment with Rattus norvegicus [2]; 19.42% in the experiment on Rattus norvegicus [3]; 11.49% in the experiment on Rattus norvegicus [4]; 10.91% in the experiment with Rattus norvegicus [5]; 20.87% in the experiment on Rattus norvegicus [6]. Moreover, the Activity worked out at 25.53% with Rattus norvegicus [7]; 21.76% in the experiment with Rattus norvegicus [8]; 21.34% in the experiment with Rattus norvegicus [9]; 17.26% in the experiment on Rattus norvegicus [10]; 24.68% with Rattus norvegicus [11]; 18.47% with Rattus norvegicus [12]. For the same compound, the Activity was 18.06% in the experiment with Rattus norvegicus [13]; 37.24% with Rattus norvegicus [14]; 15.53% in the experiment on Rattus norvegicus [15]; 35.47% in the experiment on Rattus norvegicus [16]; 8.38% in the experiment with Rattus norvegicus [17]. With `COC(=O)/C(=C/c1ccc(O)cc1)c1ccc(Oc2ccc(CC3SC(=O)NC3=O)cc2)cc1` (stereo not given), the Activity in the experiment with Rattus norvegicus [1] came to 18.81%. Turning to `CCOC(=O)/C(=C/c1ccc(O)cc1)c1ccc(Oc2ccc(CC3SC(=O)NC3=O)cc2)cc1` (stereo not given), in the experiment with Rattus norvegicus [1], the Activity is 18.16%. With `CCCOC(=O)/C(=C/c1ccc(O)cc1)c1ccc(Oc2ccc(CC3SC(=O)NC3=O)cc2)cc1` (stereo not given), the Activity in the experiment on Rattus norvegicus [1] was found to be 17.48%. `COC(=O)/C(=C/c1ccc([N+](=O)[O-])cc1)c1ccc(Oc2ccc(CC3SC(=O)NC3=O)cc2)cc1` (stereo not given): in the experiment on Rattus norvegicus [1], the Activity is reported as 13.26%.

As for `CCOC(=O)/C(=C/c1ccc([N+](=O)[O-])cc1)c1ccc(Oc2ccc(CC3SC(=O)NC3=O)cc2)cc1` (stereo not given), the Activity in the experiment on Rattus norvegicus [1] stood at 13.4%.

Consider `CCCOC(=O)/C(=C/c1ccc([N+](=O)[O-])cc1)c1ccc(Oc2ccc(CC3SC(=O)NC3=O)cc2)cc1` (stereo not given), for which, in the experiment on Rattus norvegicus [1], the Activity is 12.45%.

As to `COC(=O)/C(=C/c1ccc(Br)cc1)c1ccc(Oc2ccc(CC3SC(=O)NC3=O)cc2)cc1` (stereo not given), the Activity in the experiment with Rattus norvegicus [1] came to 15.58%. The same measure, in the same setting: to `CN(CCOc1ccc(CC2SC(=O)NC2=O)cc1)c1ccccn1` (stereo not given) [ROSIGLITAZONE] belongs 56.73%.
